Test results reported in patent publication US20090298838A1, “Method for Determination of Effective Dose of Methotrexate” (StaGen Co., Ltd., priority 2005, published 2009).
Marks after values point to notes of the source that are not given here.

Assays:
[1] = system: patients suffering from rheumatoid arthritis; assay: Relationship between genotype of A1298C polymorphism in the MTHFR gene and dose of methotrexate 12 months after start of administration (157 patients); assay type: in vivo, human; details: for Risk ratio of high dose: high dose = more than 6 mg/week at 12 months
Protocol: Target patients were 157 patients (M/F=24/133) suffering from rheumatoid arthritis who were attending to Institute of Rheumatology Tokyo Women's Medical University Hospital. All of those patients were different from patients examined in Non-Patent Document 3.
Examinations were performed on genotypes of A1298C in the MTHFR gene in these 157 patients suffering from rheumatoid arthritis and doses of methotrexate to the patients 12 months after a start of administration.
Genomic DNA was extracted from leukocytes in peripheral blood of each patient suffering from rheumatoid arthritis. From the genomic DNA, a DNA region including A1298C in the MTHFR gene was amplified by PCR. The primers shown in SEQ ID NO: 1 and SEQ ID NO: 2 in Sequence Listing were used for the amplification.
The DNA amplification reaction was performed in a system of a total volume of 50 μl, which contains 5 μl of 10×PCR Buffer (Applied Biosystem, Japan), 0.5 μl (=2.5 U) of AmpliTaq Gold (Applied Biosystem, Japan), 5.01 of 8 mM dNTP (200 μM of each dNTP), and 1 μl of each 10 pmole primer (0.2 μM of each primer). Conditions of the PCR included: totally 34 cycles of denaturing at 95° C. for 10 minutes, of reactions each at 95° C. for 30 seconds, at 65° C. for 30 seconds, and at 72° C. for 60 seconds; and final extension at 72° C. for 7 minutes.
The products amplified by the PCR were cut by the restriction enzyme Fnu4I and subjected to electrophoresis to examine whether they were cut or not, to thereby determine the genotypes (A/A, A/C, C/C) in each patient.
Alleles and genotypes in group were compared by using Fisher's exact test for statistic analysis and Chi-square test, and Excel was used as a statistical software.
In the present Example, a dose of more than 6 mg/week 12 months after the start of the administration of the methotrexate was defined as a high dose, and otherwise defined as a low dose. Individuals were classified into A/A, A/C, and C/C based on the genotypes of A1298C polymorphism in the MTHFR and summarized to a relationship between the genotypes and the high dose. As shown in FIG. 1 and Table 2, a ratio of the high dose of the methotrexate was high in the order of A/A>A/C>C/C in the genotypes. […] A possibility that patients having the A/A genotype are required to have a high dose of the methotrexate is 49%. Compared with this, possibilities of patients having the A/C genotype and patients having the C/C genotype were 28% and 13%, respectively (Table 2 and FIG. 1). There were a difference of 1.7 (risk ratio, P<0.05) between A/A and A/C, and a difference of 3.8 (risk ratio, P<0.05) between A/A and C/C.
Table 3 and FIG. 2 show a relationship between the A/A genotype of A1298C polymorphism in the MTHFR and a dose and a relationship between the other genotypes (A/C and C/C) and a dose in all the subjects of the patients suffering from the rheumatoid arthritis. In the present reference example, the dose of more than 6 mg/week 12 months after the start of the administration of the methotrexate was defined as a high dose, and otherwise defined as a low dose. Genotypes of A1298C polymorphism in the MTHFR were classified into A/A and other genotype and summarized to a relationship between the genotypes and the high dose.

[2] = system: patients suffering from the rheumatoid arthritis; details: A/A genotype (68 individuals) versus A/C and C/C (31 individuals); administration for at least 3 months; cited from earlier work

## CN(Cc1cnc2nc(N)nc(N)c2n1)c1ccc(C(=O)N[C@@H](CCC(=O)O)C(=O)O)cc1 [methotrexate]
[1]; A/A genotype, final dose more than 6 mg/week 12 months after start of administration
  Ratio of high dose: 0.485*
[1]; A/A genotype, final dose more than 6 mg/week 12 months after start of administration, listed as MTX
  Ratio of high dose: 0.485*,**
[1]; A/A genotype, more than 6 mg/week at 12 months
  Possibility that patients are required to have a high dose: 49%
[1]; A/A versus A/C genotype
  Risk ratio of high dose: 1.7
[1]; A/A versus C/C genotype
  Risk ratio of high dose: 3.8
[1]; A/C + C/C genotypes, dose more than 6 mg/week 12 months after start of administration
  Ratio of high dose: 0.259}
[1]; A/C genotype, final dose more than 6 mg/week 12 months after start of administration
  Ratio of high dose: 0.283*
[1]; A/C genotype, more than 6 mg/week at 12 months
  Possibility that patients are required to have a high dose: 28%
[1]; C/C genotype, final dose more than 6 mg/week 12 months after start of administration
  Ratio of high dose: 0.125**
[1]; C/C genotype, more than 6 mg/week at 12 months
  Possibility that patients are required to have a high dose: 13%
[1]; Total, all genotypes (157 persons), final dose more than 6 mg/week 12 months after start of administration
  Ratio of high dose: 0.408
[1]; either A/C or C/C genotype, more than 6 mg/week at 12 months
  Individuals classified to a high dose: 26%
[2]
  Proportion ratio of patients administered more than 5 mg/week: 1.78
